Patent US6928770B2, “Alternating layer non-edible foraging matrix configurations for crawling arthropods” (priority 1999, dated 2005)
“And” between values parts separate entries of the source, which are not always exact repeats. Identical values can stand only once. Like-named read-outs stand apart in the source and are kept apart here.

What was measured:
Assay type in all cases: in vivo
[1] = system: termites (Reticulitermes flavipes (Kollar)); assay: First experiment: test arena with three monitors, treated non-edible foraging matrix disc in one monitor
Excerpt: (§1) Data from two sets of experiments are included. In the first set of experiments, a total of 3,000 termites were used (2,970 workers and 30 soldiers) in all three replicates. In the second set of experiments, 3,000 termites were used in 4 replicates and 1,400 termites (1,386 workers and 14 soldiers) were used in two replicates for a total of six replicates. Fewer termites from 2 colonies were used because we could not collect enough to complete the replicates if a total of 3000 termites were used. The termites (Reticulitermes flavipes (Kollar)) were field collected from field colonies, separated from debris, and held in the laboratory at the USDA (United States Department of Agriculture) for no more than 14 days before introduction into a test arena for each experimental block. Termites from a different colony were used for each replicate.
(§2) The test arena consisted of Plexiglas sides (45 cm long, by 30 cm wide by 5.5 cm high) taped to a glass bottom (45 cm long, by 30 cm wide, by 0.6 cm high) with clear packing tape, manufactured by Crystal Clear, Manco Inc., Avon, Ohio. The Plexiglas sides were assembled by joining pieces with methylene chloride. Before the Plexiglas sides were taped to the glass bottom, the sides were baked in an oven at 40+/−2° C. for 24 hours to ensure that any volatiles caused by the methylene chloride were removed.
(§3) Builders sand from Unified Classification SP, O'Steen Bros., Inc., of Gainesville, Fla., was oven dried at 60+/−2° C. for at least 24 hours in metal pans. The sand was cooled and sieved using a sieve manufactured from Fisher Scientific Co., USA sieve no. 25, having openings of approximately 0.0278 inches each. The sieve was used to remove large pieces of debris. Two thousand five hundred grams (+/−1 g) of sand were poured into the arena and mixed thoroughly with 250 ml of double filtered, de-ionized water, which brought the moisture content of the sand to 10%. The sand was tamped and leveled.
(§4) Three monitoring stations were placed on top of the moistened builder's sand. The monitors were made of one roll of corrugated cardboard (100 cm by 6.5 cm) that was moistened and stacked into a white PVC coupler having an inner diameter of approximately 7 cm and being approximately 7.3 cm high, manufactured from Lasco of Brownsville, Tenn.
(§5) The non-edible foraging matrix treated with toxicant and used for the testing was a loamy, siliceous, thermic, arenic paleudults soil, which was a common sandy loam native soil from Central Florida. This native soil was initially oven dried at 150+/−2° C. for at least 24 hours, then cooled, then sifted to remove large pieces of organic debris. After treatment with a toxicant, the treated non-edible foraging matrix was formed into a disc for insertion into the monitors after termite activity occurred. The color contrast between the builder's sand, which was light honey color, and the native non-edible foraging matrix, which was a dark brown, was enough to see termites move portions of the treated soil particles from the discs into the tunnels.
In both sets of experiments, three different non-edible foraging matrix treatment applications were prepared using novel selected amounts of termite treatment chemicals. The difference between the first experiment and the second experiment was the rates used. […] The second application had the non-edible foraging matrix sample treated with 250 ppm of chlorfenapyr, a version entitled Phantom from American Cyanamid of Princeton, N.J. A third application had the non-edible foraging matrix treated with 125 ppm of fipronil, a version entitled Termidor, from Rhone-Poulenc of Research Triangle, N.C.
In both experimental set ups, controls were treated with filtered and de-ionized water. The treated non-edible foraging matrix was air dried for 7 days and stored in sealed plastic bags until ready for use. […]

[2] = system: termites (Reticulitermes flavipes (Kollar)); assay: Second experiment: test arena with treated foraging matrix disc at lower rates, termite survival in arenas; conditions: for Time for cessation of termite activity: second experiment, activity in the monitors not detected
Excerpt: as §1, §2, §3, §4, §5
The second application had the non-edible foraging matrix sample treated with 2.5 and 25.0 ppm of chlofenapyr, a version entitled Phantom from American Cyanamid of Princeton, N.J. A third application had the non-edible foraging matrix treated with 1.25 and 12.5 ppm of fipronil, a version entitled Termidor, from Rhone-Poulenc of Research Triangle, N.C. It is important to note that the rates used were approximately 10 and 100 times less than the rates use in the first experiment and are also 10 to 100 times less than the rates listed or proposed on the pesticide labels. Thus, the rates used in this experiment was not used for the intended purpose of the chemicals, which was to immediately kill the termites by creating a chemical barrier completely around the structure.
In both experimental set ups, controls were treated with filtered and de-ionized water. […]

[3] = system: subterranean termites; conditions: embodiment 2
Description: In the first experiment for embodiment two, oven dried Alachua fine soil was treated with approximately 125.0 ppm chlorfenapyr as the non-edible foraging matrix 550. The mixture 550 was poured into the opening 542 and wet to a moisture level of 10%. The amount of mixture 550 added to opening 542 was recorded for each replicate. Circular plastic containers having a diameter of approximately 11.5 cm by approximately 10 cm thick were filled with approximately 514 g of builder's sand and wet to a moisture level of approximately 10%. Embodiment 2 was inserted into the builder's sand in the plastic cup, 500 subterranean termites were added and the termites were allowed to tunnel for 3 weeks. After 3 weeks, the plastic container setup was disassembled. The number of live termites in the experimental unit was recorded. The amount of mixture 550 displaced from embodiment 2 was measured and recorded. Data were analyzed with a comparison test, between an untreated control sample and four replications(experimental units) of chlorfenatyr(slow acting toxicant).
Alive refers to number of termites alive after three(3) weeks exposure. %Mortality refers to percentage of termites that died after three(3) weeks exposure. Soil Moved(g) refers to total amount soil removed by the termites per each replication(per experimental unit). […] An average of 99.95% of the termites in treated units died, compared with 8.8% mortality in the control unit. […] Total untreated mixture 550 moved from embodiment 2 to the surrounding area was approximately 3.93 g, compared with an average of approximately 1.49 g of mixture 550 treated with approximately 125.0 ppm chlorfenapyr.
(§6) In the second experiment, mixture 550 was tested at a concentration of approximately 12.5 ppm chlorfenapyr. Experimental procedure was identical to what is listed above.

[4] = system: subterranean termites; conditions: embodiment 3
Description: In the first experiment for embodiment 3, oven dried Alachua fine soil was treated with approximately 125.0 ppm chlorfenapyr as the non-edible foraging matrix 550. The mixture 550 was poured into the opening 542 and wet to a moisture level of 10%. The amount of mixture 550 added to opening 542 was recorded for each replicate. Plastic containers (approximately 11.5 cm diameter, approximately 10 cm high) were filled with approximately 514 g of builder's sand and wet to a moisture level of approximately 10%. Embodiment 3 was assembled and inserted into the builder's sand in the plastic cup, 500 subterranean termites were added and the termites were allowed to tunnel for 3 weeks. After 3 weeks, the plastic container setup was disassembled. The number of live termites in the experimental unit was recorded. The amount of mixture 550 displaced from embodiment 2 was measured and recorded.
Alive refers to number of termites alive after three(3) weeks exposure. %Mortality refers to percentage of termites that died after three(3) weeks exposure. Soil Moved(g) refers to total amount soil removed by the termites per each replication(per experimental unit).
as §6

[5] = approximately 12.5 ppm chlorfenapyr
[6] = approximately 125.0 ppm chlorfenapyr

## N#Cc1nn(-c2c(Cl)cc(C(F)(F)F)cc2Cl)c(N)c1[S+]([O-])C(F)(F)F (stereo not drawn) [Fipronil, fipronil]
[1]; foraging matrix 125 ppm fipronil, week 1
  Mean ± SE number of termites in monitors: 73.8 ± 11.1
[1]; foraging matrix 125 ppm fipronil, week 2
  Mean ± SE number of termites in monitors: 44.3 ± 18.8
[1]; foraging matrix 125 ppm fipronil, week 3
  Mean ± SE number of termites in monitors: 14.6 ± 8.0
[1]; foraging matrix 125 ppm fipronil, week 4
  Mean ± SE number of termites in monitors: 6.4 ± 3.4
[1]; foraging matrix 125 ppm fipronil, week 5
  Mean ± SE number of termites in monitors: 2.6 ± 1.6
[1]; foraging matrix 125 ppm fipronil, week 6
  Mean ± SE number of termites in monitors: 0.3 ± 0.3
[1]; foraging matrix 125 ppm fipronil, week 7
  Mean ± SE number of termites in monitors: 0 ± 0
[1]; foraging matrix 125 ppm fipronil, week 8
  Mean ± SE number of termites in monitors: 0 ± 0
[2]; fipronil 1.25 ppm foraging matrix, after 5 weeks
  Mean ± SE percent survival of termites: 0.51 ± 0.30b %
[2]; fipronil 12.5 and 1.25 ppm foraging matrix, 39% in untreated arenas
  percent survival: 0.3-0.5%
[2]; fipronil 12.5 ppm foraging matrix, after 5 weeks
  Mean ± SE percent survival of termites: 0.30 ± 0.29b %
[2]; fipronil at 1.25 and 12.5 ppm
  Termite kill (in words): killed virtually all the termites
[2]
  Time for cessation of termite activity: 5 weeks

## CCOCn1c(-c2ccc(Cl)cc2)c(C#N)c(Br)c1C(F)(F)F [Chlorfenapyr, chlorfenapyr]
[1]; foraging matrix 250 ppm chlorfenapyr, week 1
  Mean ± SE number of termites in monitors: 100 ± 11.9
[1]; foraging matrix 250 ppm chlorfenapyr, week 2
  Mean ± SE number of termites in monitors: 60.7 ± 12.9
[1]; foraging matrix 250 ppm chlorfenapyr, week 3
  Mean ± SE number of termites in monitors: 21.3 ± 12.2
[1]; foraging matrix 250 ppm chlorfenapyr, week 4
  Mean ± SE number of termites in monitors: 10.9 ± 7.6
[1]; foraging matrix 250 ppm chlorfenapyr, week 5
  Mean ± SE number of termites in monitors: 3.5 ± 3.3
[1]; foraging matrix 250 ppm chlorfenapyr, week 6
  Mean ± SE number of termites in monitors: 0.8 ± 0.8
[1]; foraging matrix 250 ppm chlorfenapyr, week 7
  Mean ± SE number of termites in monitors: 0 ± 0
[1]; foraging matrix 250 ppm chlorfenapyr, week 8
  Mean ± SE number of termites in monitors: 0 ± 0
[2]; chlorfenapyr 2.5 ppm foraging matrix, after 8 weeks
  Mean ± SE percent survival of termites: 9.33 ± 5.05a^1%
[2]; chlorfenapyr 2.5 ppm foraging matrix, after 8 weeks, listed as chlorfenapyr
  Mean ± SE percent survival of termites: 9.33%
[2]; chlorfenapyr 25.0 ppm foraging matrix, after 8 weeks
  Mean ± SE percent survival of termites: 0.16 ± 0.16b %
[2]; chlorfenapyr 25.0 ppm foraging matrix, after 8 weeks, listed as chlorfenapyr
  Mean ± SE percent survival of termites: 0.16%
[2]; chlorfenapyr at 25 ppm
  Termite kill (in words): killed virtually all the termites
[2]
  Time for cessation of termite activity: 8 weeks
[3]; [5]
  Amount of mixture 550 moved, treated compared with untreated: no significant difference
  Mortality compared with untreated replications: significantly higher
[3]; approximately 12.5 ppm chlorfenapyr, approximately 13.2% in untreated control units
  Average percentage of termites in treated units that died: approximately 85.3%
[3]; [6]
  Amount of mixture 550 moved, treated compared with untreated: significantly more of the untreated mixture 550 was moved
  Mortality compared with untreated replications: significantly higher
[3]; approximately 125.0 ppm chlorfenapyr, 3 weeks, 8.8% in control unit
  Average percentage of termites in treated units that died: 99.95%
[3]; approximately 125.0 ppm chlorfenapyr, after 3 weeks exposure, per replication
  % Mortality: 100.0% and 99.8%
[3]; chlorfenapyr 12.5 ppm vs 125.0 ppm
  Amount of mixture 550 moved, 12.5 ppm compared with 125.0 ppm: significantly more mixture 550 treated at 12.5 ppm was moved
[3]; chlorfenapyr 125 ppm vs 12.5 ppm
  Mortality, approximately 125 ppm compared with approximately 12.5 ppm: no significant differences
[4]; 125.0 ppm chlorfenapyr, 500 termites, after 3 weeks exposure, per replication
  Alive (number of termites alive): 0
[4]; 125.0 ppm chlorfenapyr, after 3 weeks exposure, per replication
  % Mortality: 100.0%
[4]; [5]
  Amount of mixture 550 moved, treated compared with untreated: significantly less treated mixture 550 moved
  Mortality compared with untreated controls: no significant difference
[4]; approximately 12.5 ppm chlorfenapyr, after 3 weeks exposure, per replication
  % Mortality: 100%
[4]; approximately 12.5 ppm chlorfenapyr, approximately 18.5% in untreated control units
  Average percentage of termites in treated units that died: approximately 37.7%
[4]; [6]
  Amount of mixture 550 moved, treated compared with untreated: significantly more of the untreated mixture 550 was moved
[4]; approximately 125.0 ppm chlorfenapyr, approximately 9.6% in control unit
  Average percentage of termites in treated units that died: 100.0%

## O=[N+]([O-])NC1=NCCN1Cc1ccc(Cl)nc1 [Imidacloprid, imidacloprid]
[1]; 50 ppm imidacloprid, first experiment, summary of Table 1
  Termites in the monitors: 54 termites
[1]; foraging matrix 50 ppm imidacloprid, week 1
  Mean ± SE number of termites in monitors: 82.0 ± 2.7
[1]; foraging matrix 50 ppm imidacloprid, week 2
  Mean ± SE number of termites in monitors: 67.5 ± 0.1
[1]; foraging matrix 50 ppm imidacloprid, week 3
  Mean ± SE number of termites in monitors: 45.7 ± 14.9
[1]; foraging matrix 50 ppm imidacloprid, week 4
  Mean ± SE number of termites in monitors: 13.7 ± 2.9
[1]; foraging matrix 50 ppm imidacloprid, week 5
  Mean ± SE number of termites in monitors: 8.0 ± 3.7
[1]; foraging matrix 50 ppm imidacloprid, week 6
  Mean ± SE number of termites in monitors: 3.2 ± 3.0
[1]; foraging matrix 50 ppm imidacloprid, week 7
  Mean ± SE number of termites in monitors: 1.4 ± 1.4
[1]; foraging matrix 50 ppm imidacloprid, week 8
  Mean ± SE number of termites in monitors: 1.8 ± 0.9
[2]; imidacloprid 0.5 and 5.0 ppm foraging matrix, 23% in untreated arenas
  percent survival: 17%
[2]; imidacloprid 0.5 ppm foraging matrix, after 8 weeks
  Mean ± SE percent survival of termites: 17.13 ± 11.61a %
[2]; imidacloprid 5.0 ppm foraging matrix, after 8 weeks
  Mean ± SE percent survival of termites: 17.57 ± 9.36a %
[2]
  Time for cessation of termite activity: 8 weeks
